Data on one compound can be found in US7531320B2, “Modulation of β-catenin/TCF-activated transcription” (priority 2003, dated 2009).

The target in one test is T1, β-catenin/CBP complex (Homo sapiens, UniProt Q92793).
T1 construct: endogenous in cells; host or cells: SW480
The test is described as follows: Co-immunoprecipitation of β-catenin with CBP in SW480 cells. It counts as cell-based. Here is the method:
FIG. 3. COMPOUND 1 disrupts the β-catenin/CBP complex but not the p300/β-catenin complex. • A. Full-length Xenopus laevis β-catenin (1.1, 2.2, and 3.3 μg) or murine CBP (0.14, 0.28, 0.55, 1.1, and 2.2 μg) plasmids were cotransfected in SW480 cells along with the β-catenin/TCF (1.1 μg) reporter gene construct. Empty pcDNA3 vector was used to equalize the amount of DNA used in each reaction. Dual luciferase assays were performed 24 hours post COMPOUND 1 treatment. All experiments were performed in duplicate and values plotted as means +/−standard deviation. • B. COMPOUND 1 competes with β-catenin for CBP. SW480 cells were treated with 5 or 10 μM of COMPOUND 1 or control (0.5% DMSO). 24 hours post treatment, lysates were incubated with beads coated with either control the antibody, or anti-CBP, or anti-p300 antibodies. Co-immunoprecipitated proteins were subjected to gel electrophoresis and immunoblotting using anti-β-catenin antibodies. The arrows point to the immunoprecipitated β-catenin (doublets). • C. CBP (1-111) is the minimal region of interaction with β-catenin. SW480 cells transfected with a CBP deletion series were subjected to immunoprecipitation using anti-β-catenin antibodies coated on Protein A-agarose beads. The immune complexes were washed and subjected to gel electrophoresis followed by immunoblotting using anti-His antibodies. […]

Test [1] has as its system caspase-3/7 in SW480 cells. The test is described as follows: Caspase-3/7 activity assay, SW480 cells. The following applies: 25 μM, 24 hours, compared to CCD18Co cells. It counts as cell-based, human. The protocol: (§1) FIG. 6. • A. COMPOUND 1 arrests cells in G1. FACS analysis was performed on SW480 (lower panel) and HCT116 (upper panel) cells treated for 24 hours with either COMPOUND 1 (25 μM) (right) or control (0.5% DMSO (left). 5.5×10^6 cells were fixed and stained with propidium iodide (PI). G0/G1, S, and G2/M are indicated by arrows. • B. COMPOUND 1 selectively activates caspases in colon carcinoma cell lines. SW480 and HCT116 (left graph) cells (10^5) along with the normal colonocytes, CCD18Co (right graph) were treated with either control (0.5% DMSO) or COMPOUND 1 (25 μM). 24 hours post treatment, cells were lysed and the caspase-3/7 enzymatic activities were measured. Relative fluorescence units (RFU) were calculated by subtracting the unit values of the blank (control, without cells) from the treated samples (COMPOUND 1 or control) and plotted.
(§2) SW480, HCT116, and CCD18Co cells were plated at 10^5 cells per well (96-well plates) for 24 hours prior to treatment. 25 μM of COMPOUND 1 or control (0.5% DMSO) was added to each well. 24 hours post treatment, cells were lysed and caspase activity was measured using a caspase-3/7 activity kit (Apo-One Homogeneous caspase-3/7 assay, #G77905, Promega). Relative fluorescence units (RFU) were obtained by subtracting the unit values of the blank (control, without cells) from the experimental measured values. […]

Test [2] relates to caspase-3/7 in CCD18Co cells. The test is described as follows: Caspase-3/7 activity assay, normal colonocytes CCD18Co. Format: cell-based, human. The settings on record: 25 μM, 24 hours. The protocol: as §1, §2

T1 sequence (Q92793 whole entry, one chain of several): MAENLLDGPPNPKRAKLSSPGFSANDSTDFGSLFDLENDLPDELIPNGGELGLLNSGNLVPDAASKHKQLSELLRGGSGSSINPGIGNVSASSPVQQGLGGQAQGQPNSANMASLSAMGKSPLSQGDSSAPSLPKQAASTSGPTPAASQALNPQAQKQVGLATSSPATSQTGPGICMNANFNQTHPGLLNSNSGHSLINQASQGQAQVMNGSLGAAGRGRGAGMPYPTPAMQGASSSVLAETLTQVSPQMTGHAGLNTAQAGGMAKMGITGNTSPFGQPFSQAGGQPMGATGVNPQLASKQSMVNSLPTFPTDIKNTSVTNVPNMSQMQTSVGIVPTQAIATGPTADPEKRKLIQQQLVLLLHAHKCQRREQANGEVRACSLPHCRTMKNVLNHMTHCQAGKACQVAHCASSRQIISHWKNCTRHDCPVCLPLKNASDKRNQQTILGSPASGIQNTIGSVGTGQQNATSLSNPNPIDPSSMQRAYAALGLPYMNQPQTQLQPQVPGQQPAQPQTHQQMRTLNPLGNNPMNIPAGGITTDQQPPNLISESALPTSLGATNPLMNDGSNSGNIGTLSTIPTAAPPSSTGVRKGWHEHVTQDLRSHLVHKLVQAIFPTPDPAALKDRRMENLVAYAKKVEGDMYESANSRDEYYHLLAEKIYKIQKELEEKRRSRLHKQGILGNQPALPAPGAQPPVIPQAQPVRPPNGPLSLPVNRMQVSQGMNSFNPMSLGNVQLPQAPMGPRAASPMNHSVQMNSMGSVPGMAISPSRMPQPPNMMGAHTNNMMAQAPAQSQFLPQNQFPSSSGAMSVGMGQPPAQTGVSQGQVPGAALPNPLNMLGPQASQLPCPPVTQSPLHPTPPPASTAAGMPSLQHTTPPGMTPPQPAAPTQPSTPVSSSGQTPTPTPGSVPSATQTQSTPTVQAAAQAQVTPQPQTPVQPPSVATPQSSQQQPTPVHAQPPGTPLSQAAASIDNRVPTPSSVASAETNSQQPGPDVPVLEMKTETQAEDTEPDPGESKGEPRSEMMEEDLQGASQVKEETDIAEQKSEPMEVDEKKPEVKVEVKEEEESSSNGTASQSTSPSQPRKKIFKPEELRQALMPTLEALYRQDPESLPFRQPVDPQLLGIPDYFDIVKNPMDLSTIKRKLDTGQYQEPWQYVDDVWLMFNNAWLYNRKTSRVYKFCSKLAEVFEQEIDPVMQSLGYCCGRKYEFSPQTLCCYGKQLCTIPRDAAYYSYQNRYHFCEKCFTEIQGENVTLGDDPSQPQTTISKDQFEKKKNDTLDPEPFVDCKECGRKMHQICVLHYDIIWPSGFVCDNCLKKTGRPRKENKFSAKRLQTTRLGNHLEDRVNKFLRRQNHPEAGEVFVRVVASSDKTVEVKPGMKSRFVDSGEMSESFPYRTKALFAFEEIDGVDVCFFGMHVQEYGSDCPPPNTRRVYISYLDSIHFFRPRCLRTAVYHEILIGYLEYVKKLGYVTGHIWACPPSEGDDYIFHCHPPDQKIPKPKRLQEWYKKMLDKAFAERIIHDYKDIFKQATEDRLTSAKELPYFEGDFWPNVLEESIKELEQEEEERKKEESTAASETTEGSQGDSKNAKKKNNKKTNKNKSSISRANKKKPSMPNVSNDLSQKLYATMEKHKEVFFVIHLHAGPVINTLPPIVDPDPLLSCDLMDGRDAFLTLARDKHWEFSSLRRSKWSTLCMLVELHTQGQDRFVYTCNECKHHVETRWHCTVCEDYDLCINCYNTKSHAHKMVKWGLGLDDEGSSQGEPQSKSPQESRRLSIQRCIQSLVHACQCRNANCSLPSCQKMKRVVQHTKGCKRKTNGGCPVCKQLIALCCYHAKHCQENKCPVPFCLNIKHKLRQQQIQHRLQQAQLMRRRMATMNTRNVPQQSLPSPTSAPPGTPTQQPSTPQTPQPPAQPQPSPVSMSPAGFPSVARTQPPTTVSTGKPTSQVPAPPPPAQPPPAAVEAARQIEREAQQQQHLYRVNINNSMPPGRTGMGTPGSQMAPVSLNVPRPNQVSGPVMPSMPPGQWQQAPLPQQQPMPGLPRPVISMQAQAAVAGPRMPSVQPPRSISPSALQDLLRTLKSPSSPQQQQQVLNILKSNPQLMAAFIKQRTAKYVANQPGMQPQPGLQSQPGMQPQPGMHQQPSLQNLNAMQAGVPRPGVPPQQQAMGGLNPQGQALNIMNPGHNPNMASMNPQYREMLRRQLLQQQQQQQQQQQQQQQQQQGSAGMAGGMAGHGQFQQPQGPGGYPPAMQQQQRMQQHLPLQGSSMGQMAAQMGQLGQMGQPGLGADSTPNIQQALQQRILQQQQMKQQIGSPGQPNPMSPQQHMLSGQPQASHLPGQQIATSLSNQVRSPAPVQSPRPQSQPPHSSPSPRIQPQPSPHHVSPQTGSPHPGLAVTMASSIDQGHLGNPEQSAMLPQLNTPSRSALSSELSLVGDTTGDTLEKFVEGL

In the case of `O=C1C(Cc2ccc(O)cc2)N2C(=O)CCN(C(=O)NCc3ccccc3)C2CN1Cc1cccc2ccccc12` (stereo not shown) [COMPOUND 1], at β-catenin/CBP complex (CBP (1-111), (1-211), (1-351), 50 μM COMPOUND 1), the “CBP fragments binding to immunoprecipitated β-catenin in presence of excess COMPOUND 1” value is “dramatically competed away”. The “Immunoprecipitation of β-catenin with CBP” value at β-catenin/CBP complex (SW480 cells, 5 or 10 μM, 24 hours, concentration dependent) is “inhibited”. Besides, in test [1], the Caspase-3/7 activity result is “specifically and significantly activated”. For the same compound, the Caspase activation result in test [2] was “not in normal colonocytes”.
